Results reported in patent publication US12122787B2, “Fused pyridone compound, and preparation method therefor and use thereof” (SHANGHAI JEMINCARE PHARMACEUTICALS CO., LTD, priority 2019, dated 2024).
Like-named read-outs stand apart in the source and are kept apart here.

Key:
Type in all cases: cell-based
[1] = tested on: phosphorylated ERK (Thr202/Tyr204) in NCI-H358 cells expressing mutant RAS(G12C); test: Inhibition of RAS-mediated signal transduction: phosphorylated ERK ELISA in NCI-H358 cells
Experimental: The cells were treated with or without the compound of the present disclosure (dimethyl sulfoxide, DMSO), and the final concentration of DMSO was guaranteed to be 0.5%. After 2 hours of treatment, the medium was removed and 4% paraformaldehyde (Beyotime catalog number E672002-0100) was added and left to stand for 20 minutes. Cells were washed with PBS after fixation and incubated with precooled methanol for 10 min to permeabilize the cell membrane.
The level of phosphorylated ERK was detected using an enzyme linked immunosorbent assay (ELISA) method. […] The plates were washed 5 times with PBS containing 0.05% Tween 20. […] The reaction was stopped by adding 1 mol/L H2SO4, and the OD value was read at 450 nm by EnVision (PerkinElmer).
The total number of cells per well was detected by Janus Green B staining method. After detecting the level of phosphorylated ERK, the 96-well plate was washed with PBS until colorless, and 0.1% Janus Green B (Abcam catalogue number ab111622) was added to incubate for 10 minutes. After the 96-well plate was washed with double distilled water, 0.1 mol/L HCl was added, then the mixture was shaked and incubated for 10 minutes. The OD value was read at 595 nm by EnVision (PerkinElmer).
The signal of pERK (Thr202/Tyr204) was normalized by the signal value of Janus Green B, and the inhibition percentage after drug treatment relative to DMSO reference was calculated. The percentage values were fitted by a four-parameter dose-response curve and generated IC50 values.

[2] = tested on: NCI-H358 cells expressing KRAS-G12C; test: Growth inhibition of tumor cell line expressing KRAS-G12C (Cell Titer Glo), NCI-H358
Experimental: (§1) The ability of the compounds of the present disclosure to inhibit the growth of cells expressing KRAS-G12C was evaluated by measuring the cell viability and calculating the GI50 values.
(§2) The tumor cell line NCI-H358 (ATCC catalogue number CRL-5807) expressing KRAS-G12C was cultured in RPMI medium supplemented with 10% fetal bovine serum and penicillin/streptomycin, and the tumor cell line MIA PaCa2 (ATCC CRL-1420) expressing KRAS-G12C was cultured in DMEM medium supplemented with 10% fetal bovine serum, 2.5% horse serum, and penicillin/streptomycin.
(§3) Cells NCI-H358 and MIA-Paca2 were inoculated into black transparent bottom 384-well plate (PerkinElmer catalogue number 6007460) with cell density of 1000 and 800 respectively, and the cells were allowed to adhere to the wall overnight (8-12 hours). After the cells adhered to the wall, the experimental group was added with the compound of the present disclosure diluted 5 times the concentration of the working solution (final concentration containing 0.1% dimethyl sulfoxide, i.e. DMSO); the control group was added with the same dilution as the experimental group (final concentration containing 0.1% DMSO). After 72 hours, Cell Titer Glo reagent (Promega catalogue number G7572) was used to detect ATP content according to the instruction method to determine the amount of cell proliferation. The brief operation steps were as follows: the cell plate was taken out and kept at normal temperature for equilibrium for 30 minutes; Cell Titer Glo reagent with the same volume as the culture was added; the culture plate was placed on a shaker for shaking and cracking for 2 minutes; the culture plate was left to stand at room temperature for 10 minutes; then the light signal value was read by microplate reader EnVision (PerkinElmer).
(§4) Data from all experimental groups were used to calculate the respective percent inhibition using the DMSO group, and the GI50 was calculated using the data processing software GraphPad to analyze the inhibition rates produced by the 9 compound dose concentrations diluted at ⅓-fold ratio.

[3] = tested on: MIA PaCa2 cells expressing KRAS-G12C; test: Growth inhibition of tumor cell line expressing KRAS-G12C (Cell Titer Glo), MIA PaCa2
Experimental: as §1, §2, §3, §4

[4] = NCI-H358 cells, 2 hours of treatment, pERK normalized by Janus Green B, read-out: p-ERK IC50 (NCI H358)
[5] = Homo sapiens, NCI-H358, 2 h, NCI-H358 cells, 2 hours of treatment, pERK normalized by Janus Green B, read-out: p-ERK IC50 (NCI H358)
[6] = Homo sapiens, MIA PaCa-2, 72 h, MIA-Paca2, 72 hours

Row | SMILES | IC50 [1, 4] | GI50 ([2]; NCI-H358, 72 hours) | GI50 ([3]; MIA-Paca2, 72 hours) | IC50 [1, 5] | GI50 ([2]; Homo sapiens, NCI-H358, 72 h) | GI50 [3, 6] | further results
1 | C=CC(=O)N1CC2C(=O)N(CCN(C)C)c3c(c4cc(F)c(-c5c(O)cccc5F)c(F)c4n(-c4c(C)ccnc4C(C)C)c3=O)N2CC1C (stereo not drawn) [Compound 24B] | 0.075 µM | 68 nM | 112 nM |  |  |  | 
2 | C=CC(=O)N1C[C@@H]2CN(C)c3c(c4cc(F)c(-c5c(O)cccc5F)c(F)c4n(-c4c(C)ccnc4C(C)C)c3=O)N2C[C@H]1C (single isomer, unassigned) [Compound 16A-2] | 0.084 µM | 74 nM | 146 nM |  |  |  | 
3 | C=CC(=O)N1C[C@@H]2C(=O)Nc3c(c4cc(F)c(-c5c(O)cccc5F)c(F)c4n(-c4c(C)ccnc4C(C)C)c3=O)N2C[C@H]1C [Compound 22A] | 0.016 µM | 10 nM | 24 nM |  |  |  | 
4 | C=CC(=O)N1CC2COc3c(c4cc(Cl)c(-c5c(O)cccc5F)c(F)c4n(-c4c(C)ccnc4C(C)C)c3=O)N2CC1C (single isomer, unassigned) [Compound 18B-2] | 0.102 µM | 149 nM | 172 nM |  |  |  | 
5 | C=CC(=O)N1C[C@@H]2C(=O)N(C)c3c(c4cc(Cl)c(-c5c(O)cccc5F)c(F)c4n(-c4c(CC)ccnc4C(C)C)c3=O)N2C[C@H]1C [Compound 53A-1] |  |  |  | 0.003 µM | 2 nM | 4 nM | 
6 | C=CC(=O)N1C[C@@H]2COc3c(c4cc(Cl)c(-c5c(O)cccc5F)c(F)c4n(C)c3=O)N2C[C@H]1C [Compound 4A] |  |  |  | 0.159 µM | 523 nM | 2400 nM | 
7 | C=CC(=O)N1C[C@@H]2COc3c(c4cc(F)c(-c5c(F)cccc5OC)nc4n(-c4c(C)ccnc4C(C)C)c3=O)N2C[C@H]1C (single isomer, unassigned) [Compound 6A] | 0.065 µM |  |  |  | 41 nM | 230 nM | 
8 | C=CC(=O)N1C[C@@H]2C(=O)N(C)c3c(c4cc(Cl)c(-c5ccc(F)c6nc(N)sc56)nc4n(-c4c(C)ccnc4C(C)C)c3=O)N2C[C@H]1C (single isomer, unassigned) [Compound 56B] | 0.011 µM | 12 nM | 25 nM |  |  |  | 
9 | C=CC(=O)N1C[C@@H]2C(=O)N(CCN(C)C)c3c(c4cc(Cl)c(-c5c(F)cccc5OC)c(F)c4n(-c4c(C)ccnc4C(C)C)c3=O)N2C[C@H]1C (atropisomer, axis not shown) [Compound 27D] | 0.124 µM | 85 nM | 117 nM |  |  |  | 
10 | C=CC(=O)N1C[C@@H]2COc3c(c4cc(F)c(-c5c(O)cccc5F)nc4n(-c4ccccc4C(C)C)c3=O)N2C[C@H]1C [Compound 2A] |  |  |  | 0.066 µM | 143 nM | 1020 nM | 
11 | C=CC(=O)N1C[C@@H]2C(=O)N(CCO)c3c(c4cc(F)c(-c5c(O)cccc5F)c(F)c4n(-c4c(C)ccnc4C(C)C)c3=O)N2C[C@H]1C [Compound 40A] |  |  |  | 0.052 µM | 62 nM | 56 nM | 
12 | C=CC(=O)N1C[C@@H]2COc3c(c4cc(Cl)c(-c5c(O)cccc5F)c(F)c4n(-c4c(C)ccnc4C(C)C)c3=O)N2C[C@H]1C (atropisomer, axis not shown) [Compound 18B] | 0.151 µM | 138 nM | 468 nM |  |  |  | 
13 | C=CC(=O)N1C[C@@H]2COc3c(c4cc(F)c(-c5c(O)cccc5F)nc4n(-c4c(C)ccnc4C(C)C)c3=O)N2C[C@H]1C (single isomer, unassigned) [Compound 5A] | 0.061 µM | 89 nM | 252 nM |  |  |  | 
14 | C=CC(=O)N1C[C@@H]2COc3c(c4cc(Cl)c(-c5c(O)cccc5F)c(F)c4n(-c4c(C)ccnc4C(C)C)c3=O)N2C[C@H]1C [Compound 18A] | 0.005 µM | 6 nM | 13 nM |  |  |  | 
15 | C=CC(=O)N1C[C@@H]2C(=O)N(CCN(C)C)c3c(c4cc(Cl)c(-c5c(F)cccc5OC)nc4n(-c4c(C)ccnc4C(C)C)c3=O)N2C[C@H]1C [Compound 30A] |  |  |  | 0.17 µM | 208 nM | 231 nM | 
16 | C=CC(=O)N1C[C@@H]2COc3c(c4cc(F)c(-c5c(C)ccc6[nH]ncc56)nc4n(-c4ccccc4C(C)C)c3=O)N2C[C@H]1C (single isomer, unassigned) [Compound 13A] | 0.04 µM |  |  |  | 59 nM | 265 nM | 
17 | C=CC(=O)N1C[C@@H]2C(=O)N(C)c3c(c4cc(F)c(-c5c(O)cccc5F)c(F)c4n(-c4c(C)ccnc4C(C)C)c3=O)N2C[C@H]1C [Compound 21A-2] | 0.015 µM | 10 nM | 34 nM |  |  |  | 
18 | C=CC(=O)N1C[C@@H]2C(=O)N(C)c3c(c4cc(Cl)c(-c5c(F)cccc5OC)c(F)c4n(-c4c(C)ncnc4C(C)C)c3=O)N2C[C@H]1C [Compound 50] |  |  |  | 0.041 µM | 62 nM | 94 nM | 
19 | C=CC(=O)N1C[C@@H]2C(=O)N(C)c3c(c4cc(F)c(-c5c(O)cccc5F)c(F)c4n(-c4c(C(C)C)ncnc4C(C)C)c3=O)N2C[C@H]1C [Compound 20B] | 0.264 µM | 413 nM | 1600 nM |  |  |  | 
20 | C=CC(=O)N1C[C@@H]2COc3c(c4cc(F)c(-c5c(O)cccc5F)c(F)c4n(-c4c(C)ccnc4C(C)C)c3=O)N2C[C@H]1C (atropisomer, axis not shown) [Compound 3B-1] | 0.026 µM | 27 nM | 166 nM |  |  |  | 
21 | C=CC(=O)N1C[C@@H]2CN(C)c3c(c4cc(Cl)c(-c5c(O)cccc5F)nc4n(-c4c(C)ccnc4C(C)C)c3=O)N2C[C@H]1C [Compound 8] |  |  |  | 0.024 µM | 22 nM | 37 nM | 
22 | C=CC(=O)N1C[C@@H]2C(=O)N(C)c3c(c4cc(Cl)c(-c5c(O)cccc5F)c(F)c4n(-c4c(C)ncnc4C(C)C)c3=O)N2C[C@H]1C [Compound 49A] |  |  |  | 0.004 µM | 4 nM | 9 nM | 
23 | C=CC(=O)N1C[C@@H]2CN(C)c3c(c4cc(F)c(-c5c(O)cccc5F)nc4n(-c4ccccc4C(C)C)c3=O)N2C[C@H]1C [Compound 10A] |  |  |  | 0.063 µM | 184 nM | 496 nM | 
24 | C=CC(=O)N1C[C@@H]2C(=O)N(CCN(C)C)c3c(c4cc(Cl)c(-c5c(O)cccc5F)c(F)c4n(-c4c(C)ccnc4C(C)C)c3=O)N2C[C@H]1C (atropisomer, axis not shown) [Compound 26A] |  |  |  | 0.203 µM | 152 nM | 724 nM | 
25 | C=CC(=O)N1C[C@@H]2C(=O)N(CCN(C)C)c3c(c4cc(Cl)c(-c5c(O)cccc5F)c(F)c4n(-c4c(C)ccnc4C(C)C)c3=O)N2C[C@H]1C (atropisomer, axis not shown) [Compound 26B] | 0.019 µM | 22 nM | 28 nM |  |  |  | 
26 | C=CC(=O)N1C[C@@H]2COc3c(c4cc(F)c(-c5c(O)cccc5F)nc4n(-c4c(C)ccnc4C(C)C)c3=O)N2C[C@H]1C (single isomer, unassigned) [Compound 5B] | 0.128 µM | 210 nM | 3130 nM |  |  |  | 
27 | C=CC(=O)N1CCN(c2ncnc3c(F)c(-c4c(O)cccc4F)c(Cl)cc23)CC1 [ARS-1620] |  |  |  |  |  |  | IC50 ([1]; Homo sapiens, NCI-H358, 2 h, read-out: p-ERK IC50 (NCI H358, μM)): 0.325 µM; GI50 ([2]; Homo sapiens, NCI-H358, 72 hours): 510 nM; GI50 ([3]; Homo sapiens, MIA PaCa-2, MIA-Paca2, 72 hours): 1210 nM
28 | C=CC(=O)N1C[C@@H]2C(=O)N(CCN(C)C)c3c(c4cc(Cl)c(-c5c(O)cccc5F)nc4n(-c4c(C)ccnc4C(C)C)c3=O)N2C[C@H]1C [Compound 29A] |  |  |  | 0.124 µM | 44 nM | 67 nM | 
29 | C=CC(=O)N1C[C@@H]2CN(CC(N)=O)c3c(c4cc(F)c(-c5c(O)cccc5F)c(F)c4n(-c4c(C)ccnc4C(C)C)c3=O)N2C[C@H]1C [Compound 44A] |  |  |  | 0.58 µM | 424 nM | 1570 nM | 
